Assay: Bioavailability of exemplary compounds in mice (3APS quantified in plasma)
Format: in vivo
Conditions: mouse, oral, 3APS in plasma
Protocol: Selected exemplary compounds were tested for bioavailability in mice. Bioavailability estimates are performed for 3APS after administration of molar equivalent the selected compounds. […] The animals are anesthetized with isoflurane before blood collection (approximately 45 sec). Samples are collected at 5, 30, 60, 120, 180, 240 and 360 min post intravenous administration and at 15, 30, 60, 120, 180, 240 and 360 min post oral administration. One animal is used to obtain a baseline sample (pre-dose sample). Blood samples are collected into Sarstedt™ micro tubes (EDTA KE/1.3 ml), kept on ice until centrifugation at 4° C. at a minimum speed of 3000 rpm (1620 G) for 10 min. Plasma samples are transferred into Eppendorf™ tubes, immediately placed on dry ice and stored at −80° C. Plasma samples are stored frozen at […] pending analysis.
Compounds in mouse plasma are extracted using protein precipitation. Quantitation of 3APS in mouse plasma matrix is achieved using LC-MS detection. Sample concentration is calculated using a calibration curve.

NCCCS(=O)(=O)O [Compound 3APS, 3-amino-1-propanesulfonic acid] gave a Tmax of 15 min.

From patent US11020360B2, “Methods, compounds, compositions and vehicles for delivering 3-amino-1-propanesulfonic acid” (Bellus Health, Inc., priority 2006, dated 2021)
